According to US20050107474A1, “Pharmaceutical compositions for the treatment of infections of the respiratory system by pathogenic agents” (priority 2002, published 2005):
Where “and” joins values, the source holds several entries; their conditions need not be identical. Equal values may be shown once.

Columns and labels:
S. aureus biofilm [1] = experiment: Disruption of biofilm at initial maturation (5 hours); assay type: cell-based, Staphylococcus aureus; conditions: for disruption of biofilm formed after 5 hours (initial maturation): maximum concentration (8 mg/ml)
Description: (§1) The effects of NAC and TAPh on the biofilm produced by S. aureus were evaluated on four strains of the microorganism designated 1393, 1876, 1880 and 1890.
(§2) The biofilm adhering to the walls of the microplates was washed with PBS, suspended in 10% sarcosyl and measured spectrophotometrically at 492 nm.
(§3) The same technique was employed for calculating the residual quantity of biofilm after treatment with NAC alone and combined with TAPh on S. aureus. For this purpose, biofilms with two different degrees of maturity: initial (5 hours) and fully consolidated (48 hours) were exposed to suitable concentrations of NAC (from 8 mg/ml to 0.007 mg/ml) with added TAPh at the concentrations that can be reached in vivo in the pulmonary tree.

S. aureus biofilm [2] = experiment: Disruption of fully consolidated biofilm (48 hours); assay type: cell-based, Staphylococcus aureus
Description: as §1, §2, §3

P. aeruginosa = conditions: Antimicrob. Agents Chemother., 35, 1258, (1991); cited from earlier work
S. epidermidis = conditions: J. Ant. Chem., 39, 643, (1997); cited from earlier work
S. aureus biofilm [3] = experiment: Biofilm formation in polystyrene microplates, crystal violet, spectrophotometric at 492 nm; assay type: cell-based, Staphylococcus aureus; conditions: for reduction of the biofilm (formation) / decrease of biofilm production: NAC 8 mg/ml, 24 hours
Description: as §1
Formation of the biofilms was quantified spectrophotometrically in polystyrene microplates with U-well geometry (Corning Incorporated, New York).
In more detail, the effect of NAC on biofilm formation was evaluated as follows: overnight broth cultures in tryptic soy broth (TSB) with glucose added (0.25%) (TSBG) were diluted 1:100 in TSBG. Appropriate dilutions of NAC at concentrations varying respectively from 8 mg/ml to 0.007 mg/ml were added to the suspensions (100 μl each). After incubation at 37° C. for 24 hours, the microplates were washed three times with 10 mM phosphate buffer pH 7.4 (PBS), treated with Bouin fixative and then stained with crystal violet (0.01%).
as §2

S. aureus [4] = experiment: Viability (CFU/ml) of biofilm cells after sonication and seeding; assay type: cell-based, Staphylococcus aureus; conditions: maximum concentration, range over strains
Description: as §1
At the same time, the biofilms thus treated were submitted to sonication in order to disperse the cells that were still adhering, and these were seeded on rich medium after suitable dilution for calculating the vital elements surviving the various treatments.

S. aureus [5] = experiment: Bacterial growth in broth culture with NAC; assay type: cell-based, Staphylococcus aureus; conditions: NAC up to maximum concentration 8 mg/ml

CC(=O)N[C@@H](CS)C(=O)O [NAC, N-acetyl-cysteine]
reduction values with NAC on its own, initial biofilms (range over strains, restated) (S. aureus biofilm [1]; NAC alone, first range printed): 32.5-65.5%
disruption of biofilm formed after 5 hours (initial maturation) (S. aureus biofilm [1]; S. aureus 1876): 32.5%
disruption of biofilm formed after 5 hours (initial maturation) (S. aureus biofilm [1]; strain 1393): 61.1%
disruption of biofilm formed after 5 hours (initial maturation) (S. aureus biofilm [1]; strain 1880): 57.3%
disruption of biofilm formed after 5 hours (initial maturation) (S. aureus biofilm [1]; strain 1890): 58.6%
reduction values with NAC on its own, fully consolidated biofilms (range over strains, restated) (S. aureus biofilm [2]; NAC alone, second range printed): 58.1-62%
reduction of mucopolysaccharide material of fully consolidated biofilms (S. aureus biofilm [2]; maximum concentration, four strains assayed, one value each, strain per value not given): 62% and 60.5% and 58.1% and 65.5%
disruption of biofilms (P. aeruginosa): ability to disrupt biofilms
inhibition of biofilm formation (S. epidermidis): inhibit their formation
reduction of the biofilm (formation) (S. aureus biofilm [3]; S. aureus 1393): 68.2%
decrease of biofilm production (S. aureus biofilm [3]; S. aureus 1876): 30.3%
decrease of biofilm production (S. aureus biofilm [3]; S. aureus 1880): 41.1%
reduction of the biofilm (formation) (S. aureus biofilm [3]; S. aureus 1890): 56.3%
glycocalyx production (S. aureus biofilm [3]; all the strains): inhibited glycocalyx production in all the strains
reduction in colony forming units per ml (CFU/ml) (S. aureus [4]; cells of mature (consolidated) biofilms): 33.7% to 70.6
reduction in colony forming units per ml (CFU/ml) (S. aureus [4]; cells of the youngest biofilms (initial maturation)): 33.7% to 91
visible changes in bacterial growth (S. aureus [5]): did not cause visible changes in bacterial growth
